Results from paper PMC8657793, “Synthesis, In Vitro and In Silico Anticancer Activity of New 4-Methylbenzamide Derivatives Containing 2,6-Substituted Purines as Potential Protein Kinases Inhibitors” (International Journal of Molecular Sciences, 2021).

Assays:
PDGFRα = target: T1, PDGFRα (Homo sapiens, UniProt P16234); test: Kinase Selectivity Profiling System TK-1 / ADP-Glo, PDGFRα; format: biochemical
T1 construct: purchased Promega
Excerpt: Considering the presence of a purine ring in the compounds under study, type 1 binding to protein kinases could be expected. We investigated the kinase selectivity of targeted compounds 7–16 against eight receptor tyrosine kinases including EGFR, HER2 and HER4 (epidermal growth factor receptors), IGF1R (insulin-like growth factor 1 receptor), InsR (insulin receptor), KDR (vascular endothelial growth factor receptor 2—VEGFR-2), and PDGFRα and PDGFRβ (platelet-derived growth factor receptors). The assay was performed using the Kinase Selectivity Profiling System TK-1 (Promega, Madison, WI, USA) and ADP-Glo™ Kinase assay kit (Promega, Madison, WI, USA). Kinase activity was measured by quantifying the […] following a kinase reaction. Enzymatic activity inhibition percentage caused by studied compounds was evaluated at the single concentration of 1 μM.
The Abl1 inhibitory activity assay was performed using Abl1 Kinase Enzyme System (Promega, Madison, WI, USA) and ADP-Glo™ Kinase assay kit (Promega, Madison, WI, USA) according to the Technical Manual. The general procedure was as follows: kinase (2.5 ng/reaction) was incubated with substrate (1 μg), compound (0.5 and 10µM) and ATP (50 μM) in a commercial buffer solution with a reaction volume of 5 μL. In every experiment, no-enzyme and no-compound control reactions were included to represent background luminescence (0% activity) and uninhibited kinase activity (100% activity), respectively. The assay 384-well plate was incubated at room temperature for 1 h. Afterwards, 5μL of ADP-Glo reagent was added into each well to stop the reaction and consume the […] within 40 min. At the end, 10 μL of kinase detection reagent was added into the well and incubated for 30 min to produce a luminescence signal. Kinase activity assays were performed in triplicate at each inhibitor concentration. The luminescence was measured with the help of a Tecan Infinite M200 Plate Reader. The luminescence data were analyzed using the computer software, Magellan™. Percent kinase activity (KA) was calculated by subtracting the average no-enzyme control luminescence values from all kinase-containing reactions with or without compound, then converting these net luminescence values to percent activity based on the no-compound control reactions representing 100% kinase activity. Inhibition (I, %) was calculated as 100%-KA.
The single-dose screening of kinase selectivity was performed using Kinase Selectivity Profiling System TK-1 (Promega, Madison, WI, USA) and ADP-Glo™ Kinase assay kit (Promega, Madison, WI, USA) according to Technical Manual. Kinase Selectivity Profiling System TK-1 includes a set of kinases from the tyrosine kinase family (EGFR, HER2, HER4, IGF1R, InsR, KDR, PDGFα, PDGFβ) in 8-tube strip format. The general procedure was as follow: kinase working stock (2 µL/reaction) was incubated with ATP/substrate working stock (1 µL) and compound (1 µM) in a commercial buffer solution with a reaction volume of 5 μL. The reaction conditions and inhibition (%) calculation were the same as in Section 3.3.1. Kinase activity assays were performed in duplicate at each inhibitor.

[1] = tested on: RPMI 1788 (B lymphocyte, normal human lymphoblastoid cells); test: MTT assay on normal cells RPMI 1788; format: cell-based
Method: (§1) To determine the selectivity of the synthesized compounds 7–16 toward various cancer cells and normal human cells, the anti-proliferative activity against K562 (chronic myelogenous leukemia), HL-60 (promyelocytic leukemia), MCF-7 (breast adenocarcinoma), HeLa (cervix carcinoma), HepG2 (human liver cancer), A549 (lung carcinoma), OKP-GS (renal cell carcinoma), and normal cells RPMI 1788 (B lymphocyte, the human cell line) was investigated.
(§2) Each in vitro experiment was performed at least in triplicate and the standard deviation of absorbance was less than 10% of the mean. For the in vitro assays, a stock solution (1% DMSO in the appropriate buffer with the tested compound diluted under sonication) was prepared from which several dilutions were made with the appropriate buffer.
Human cell lines were obtained from the Institute of Cytology, Russian Academy of Sciences. The cell lines studied were maintained in RPMI 1640 medium (AppliChem, Darmstadt, Germany) supplemented with 20% (HL-60, RPMI 1788) fetal calf serum (HyClone, Cramlington, UK), in DMEM (A 549) and Eagle’s MEM (AppliChem) (MCF7, HeLa) with 10% fetal calf serum (HyClone). Cells were cultivated at 37 °C in a humidified atmosphere of 5% CO2. Cellular sensitivities to synthesized compounds and standards were measured with the MTT assay. Cells were plated in triplicate in 96-well plates (10^5 cells/well for suspended cell cultures and 5 × 10^3 cells/well for monolayer cultures); on the same day (suspended cell cultures) or on the following day (monolayer cultures), compounds were added at the appropriate dilutions. […] The reference drugs were imatinib, sorafenib and nilotinib. Plates were incubated under standard conditions for 48 h. Thereafter, 10 μL MTT (Sigma) in phosphate-buffered saline (5 mg/mL) was added. The plates were incubated for an additional 4 h and 150 μL dimethylsulphoxide (DMSO) was added to dissolve the formazan crystals. The optical density was read on a HALO MPR-95 Microplate Reader (Dynamica Scientific Ltd., Melbourne, Victoria, Australia) at 570 nm. The antiproliferative effects were taken as degrees of inhibition of tumor cells (%). The average of three parallel measurements was calculated for each concentration of test compound. The degree of cell growth suppression was plotted as a function of the logarithm of the concentration. The half maximal inhibitory concentration (IC50) was determined graphically for active compounds.

[2] = tested on: HepG2 (human liver cancer); test: MTT anti-proliferative assay, HepG2; format: cell-based; conditions: 48 h
Method: as §1, §2
Human cell lines were obtained from the Institute of Cytology, Russian Academy of Sciences. The cell lines studied were maintained in RPMI 1640 medium (AppliChem, Darmstadt, Germany) supplemented with 20% (HL-60, RPMI 1788) fetal calf serum (HyClone, Cramlington, UK), in DMEM (A 549) and Eagle’s MEM (AppliChem) (MCF7, HeLa) with 10% fetal calf serum (HyClone). Cells were cultivated at 37 °C in a humidified atmosphere of 5% CO2. Cellular sensitivities to synthesized compounds and standards were measured with the MTT assay. Cells were plated in triplicate in 96-well plates (10^5 cells/well for suspended cell cultures and 5 × 10^3 cells/well for monolayer cultures); on the same day (suspended cell cultures) or on the following day (monolayer cultures), compounds were added at the appropriate dilutions. Anti-proliferative activity was studied at concentrations 0.1–50.0 µM. The reference drugs were imatinib, sorafenib and nilotinib. Plates were incubated under standard conditions for 48 h. Thereafter, 10 μL MTT (Sigma) in phosphate-buffered saline (5 mg/mL) was added. The plates were incubated for an additional 4 h and 150 μL dimethylsulphoxide (DMSO) was added to dissolve the formazan crystals. The optical density was read on a HALO MPR-95 Microplate Reader (Dynamica Scientific Ltd., Melbourne, Victoria, Australia) at 570 nm. The antiproliferative effects were taken as degrees of inhibition of tumor cells (%). The average of three parallel measurements was calculated for each concentration of test compound. The degree of cell growth suppression was plotted as a function of the logarithm of the concentration. The half maximal inhibitory concentration (IC50) was determined graphically for active compounds.

T1 sequence (P16234 24-1089): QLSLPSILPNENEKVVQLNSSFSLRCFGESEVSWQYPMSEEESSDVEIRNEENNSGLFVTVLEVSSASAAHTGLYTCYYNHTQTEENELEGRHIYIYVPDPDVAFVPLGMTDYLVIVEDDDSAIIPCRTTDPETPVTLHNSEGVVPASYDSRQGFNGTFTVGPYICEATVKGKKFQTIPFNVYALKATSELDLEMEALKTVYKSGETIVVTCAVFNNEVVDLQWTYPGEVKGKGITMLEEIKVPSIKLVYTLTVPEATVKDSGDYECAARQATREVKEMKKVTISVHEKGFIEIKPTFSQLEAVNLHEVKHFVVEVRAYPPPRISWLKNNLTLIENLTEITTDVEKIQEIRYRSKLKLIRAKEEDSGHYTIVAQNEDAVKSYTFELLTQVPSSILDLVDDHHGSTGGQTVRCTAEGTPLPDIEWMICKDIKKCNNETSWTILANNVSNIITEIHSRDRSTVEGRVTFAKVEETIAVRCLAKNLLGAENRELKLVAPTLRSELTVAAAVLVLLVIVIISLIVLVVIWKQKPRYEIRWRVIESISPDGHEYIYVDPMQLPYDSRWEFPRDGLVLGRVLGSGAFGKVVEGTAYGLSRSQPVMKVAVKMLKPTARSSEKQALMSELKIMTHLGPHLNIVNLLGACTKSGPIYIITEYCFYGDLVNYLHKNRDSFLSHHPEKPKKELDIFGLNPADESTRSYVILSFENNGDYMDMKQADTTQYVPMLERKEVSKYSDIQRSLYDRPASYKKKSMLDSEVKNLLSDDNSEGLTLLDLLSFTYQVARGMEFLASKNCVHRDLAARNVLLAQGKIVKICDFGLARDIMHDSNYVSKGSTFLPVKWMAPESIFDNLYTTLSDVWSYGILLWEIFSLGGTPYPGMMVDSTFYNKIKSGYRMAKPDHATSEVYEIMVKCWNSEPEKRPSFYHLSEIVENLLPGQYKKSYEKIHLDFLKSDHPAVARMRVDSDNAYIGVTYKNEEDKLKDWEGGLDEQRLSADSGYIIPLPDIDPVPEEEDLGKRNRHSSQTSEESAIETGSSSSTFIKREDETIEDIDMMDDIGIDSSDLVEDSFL

Row | Structure (SMILES) | inhibition at 1 µM (PDGFRα) | IC50 [2] | inhibition at 100 µM [1]
1 | CNC(=O)c1cc(Oc2ccc(NC(=O)Nc3ccc(Cl)c(C(F)(F)F)c3)cc2)ccn1 [Sorafenib, sorafenib, reference compound] | 98% | 8.4 ± 2.8 µM | 100%
2 | O=C(Nc1cccc(C(F)(F)F)c1)c1ccc(Cn2cnc3c(Cl)nc(Cl)nc32)cc1 [Compound 7, 4-((2,6-Dichloro-9H-purin-9-yl)methyl)-N-(3-(trifluoromethyl)phenyl)benzamide] | 40% | 11.3 ± 1.44 µM | 98.9%
3 | COc1nc(Cl)nc2c1ncn2Cc1ccc(C(=O)Nc2cc(-n3cnc(C)c3)cc(C(F)(F)F)c2)cc1 [Compound 14, 4-((2-Chloro-6-methoxy-9H-purin-9-yl)methyl)-N-(3-(4-methyl-1H-imidazol-1-yl)-5-(trifluoromethyl)phenyl)benzamide] | 16% | 28.5 ± 1.07 µM | 99.1%
4 | Cc1cn(-c2cc(NC(=O)c3ccc(Cn4cnc5c(Cl)nc(Cl)nc54)cc3)cc(C(F)(F)F)c2)cn1 [Compound 10, 4-((2,6-Dichloro-9H-purin-9-yl)methyl)-N-(3-(4-methyl-1H-imidazol-1-yl)-5-(trifluoromethyl)-phenyl)benzamide] | 37% | 12.7 ± 0.7 µM | 98.5%

The next lines start with results.

Row | inhibition at 1 µM (PDGFRα) | IC50 [2] | Structure (SMILES) | inhibition at 100 µM [1]
5 | 16% | 88.3 ± 2.54 µM | Nc1nc(Cl)nc2c1ncn2Cc1ccc(C(=O)Nc2cccc(C(F)(F)F)c2)cc1 [Compound 15, 4-((6-Amino-2-chloro-9H-purin-9-yl)methyl)-N-(3-(trifluoromethyl)phenyl)benzamide] | 93.5%
6 | 10% | 9.16 ± 0.78 µM | COc1nc(Cl)nc2c1ncn2Cc1ccc(C(=O)Nc2cccc(C(F)(F)F)c2)cc1 [Compound 13, 4-((2-Chloro-6-methoxy-9H-purin-9-yl)methyl)-N-(3-(trifluoromethyl)phenyl)benzamide] | 100%
